Patent publication US6603012B2, “RAR selective retinoid agonists” (Hoffmann-La Roche Inc., priority 2000, dated 2003)

How the values were obtained:
[1] = system: animal models of emphysema; settings: cited from earlier work
[2] = system: alveoli in rats; settings: postnatal administration; cited from earlier work
[3] = system: elastase-induced emphysema; experiment: Repair of alveoli in the rat model of elastase-induced emphysema (morphometric analysis); type: in vivo, male Sprague Dawley rats; settings: once daily starting 21 days post elastase injury
Method: RAR selective agonists were evaluated for its effects on alveolar repair in the rat model of elastase-induced emphysema in rats (D. Massaro et al. Nature Medicine (1997, 3, 675). Animals were divided into treatment groups of approximately eight. Lung inflammation and alveolar damage was induced in male Sprague Dawley rats by a single instillation of pancreatic elastase(porcine derived, Calbiochem) 2 U/gram body mass. Three weeks post injury, all-trans retinoic acid or RAR agonist was dissolved in dimethylsulfoxide (20 mg/ml) and stored at −20 C. Fresh working stocks were prepared daily by dilution in PBS to a final concentration of 2 mg/ml. Animals were dosed once daily with the retinoid by intraperitoneal injection or orally, starting 21 days post injury. Control groups were challenged with elastase and 21 days later treated with Vehicle (DMSO/PBS) for 14 days. Animals were sacrificed 24 hours after the last dose by exsanguination under deep anesthesia. The lungs were inflated with 10% neutral buffered formalin by intratracheal instillation at a constant rate (1 ml/gram body mass/min). The lung was excised and immersed in fixative for 24 hours prior to processing. Standard methods were used to prepare 5 um paraffin sections. Sections were stained with Hematoxylin and Eosin (H%E). Computerized Morphometric analysis was performed to determine the average alveolar size and alveolar number (Table 1).

CC1(C)CCC(C)(C)c2cc(C(Cc3ccccc3)C(=O)Oc3ccc(C(=O)O)cc3)ccc21 (racemic) [Example 3.2, (RS)-4-[3-Phenyl-2-(5,5,8,8-tetramethyl-5,6,7,8-tetrahydronaphthalen-2-yl)-propanoyloxy]-benzoic acid]
melting point: 163 to 164 °C

CCCCCC(/C=C/c1ccc(C(=O)O)cc1F)c1ccc2c(c1)C(C)(C)CCC2(C)C (racemic) [Example 10.16, (RS)-(E)-3-Fluoro-4-[3-(5,5,8,8-tetramethyl-5,6,7,8-tetrahydronaphthalen-2-yl)-oct-1-enyl]-benzoic acid]
melting point: 112 to 113 °C

CC1(C)CCC(C)(C)c2cc(C(/C=C/c3ccc(C(=O)O)cc3)Cc3ccccc3)ccc21 (racemic) [Example 10.8, (RS)-(E)-4-[4-Phenyl-3-(5,5,8,8-tetramethyl-5,6,7,8-tetrahydronaphthalen-2-yl)-but-1-enyl]-benzoic acid]
melting point: 183 to 184 °C

CC1(C)CCC(C)(C)c2cc(CCOc3ccc(C(=O)O)cc3)ccc21 [Example 11.2, 4-[2-(5,5,8,8-Tetramethyl-5,6,7,8-tetrahydronaphthalen-2-yl)-ethyloxy]-benzoic acid]
melting point: 195 to 196 °C

CCOC(C(=O)Oc1ccc(C(=O)O)cc1)c1ccc2c(c1)C(C)(C)CCC2(C)C (racemic) [Example 15.3. d), (RS)-4-[ethoxy-(5,5,8,8-tetramethyl-5,6,7,8-tetrahydro-naphthalen-2-yl)-acetoxy]-benzoic acid]
melting point: 123 to 125 °C

CCCOC(C(=O)Oc1ccc(C(=O)O)cc1)c1ccc2c(c1)C(C)(C)CCC2(C)C (racemic) [Example 15.4. d), (RS)-4-[propoxy-(5,5,8,8-tetramethyl-5,6,7,8-tetrahydro-naphthalen-2-yl)-acetoxy]-benzoic acid]
melting point: 155 to 156 °C

CC1(C)CCC(C)(C)c2cc(C(/C=C/c3ccc(C(=O)O)cc3)Cc3ccc(Cl)cc3)ccc21 (racemic) [Example 10.9, (RS)-(E)-4-[4-(4-Chlorophenyl)-3-(5,5,8,8-tetramethyl-5,6,7,8-tetrahydronaphthalen-2-yl)-but-1-enyl]-benzoic acid]
melting point: 168 to 169 °C

CC1=C(/C=C/C(C)=C/C=C/C(C)=C/C(=O)O)C(C)(C)CCC1 [all-trans retinoic acid]
formation of new alveoli and elastic recoil [1]: can induce formation of new alveoli and return elastic recoil to near normal | number of alveoli [2]: increases the number of alveoli in rats

CC(C)CC(/C=C/c1ccc(C(=O)O)cc1)c1ccc2c(c1)C(C)(C)CCC2(C)C (racemic) [Example 10.7, (RS)-(E)-4-[5-Methyl-3-(5,5,8,8-tetramethyl-5,6,7,8-tetrahydronaphthalen-2-yl)-hex-1-enyl]-benzoic acid]
melting point: 61 to 78 °C

CCCCC(/C=C/c1ccc(C(=O)O)cc1)c1ccc2c(c1)C(C)(C)CCC2(C)C (racemic) [Example 10.5, (RS)-(E)-4-[3-(5,5,8,8-Tetramethyl-5,6,7,8-tetrahydronaphthalen-2-yl)-hept-1-enyl]-benzoic acid]
melting point: 107 to 108 °C

CC1(C)CCSc2ccc(C(/C=C/c3ccc(C(=O)O)cc3)CCc3ccccc3)cc21 (racemic) [Example 40.3, (RS)-(E)-4-[3-(4,4-Dimethyl-thiochroman-6-yl)-5-phenylpent-1-enyl]-benzoic acid]
melting point: 63 to 76 °C

CCCCOC(C(=O)Oc1ccc(C(=O)O)cc1)c1ccc2c(c1)C(C)(C)CCC2(C)C (single isomer, unassigned) [Example 16 (from diastereomer II), (S)- or (R)-4-[butoxy-(5,5,8,8-tetramethyl-5,6,7,8-tetrahydro-naphthalen-2-yl)-acetoxy]-benzoic acid]
melting point: 113 to 114 °C

CCCCCC(/C=C/c1ccc(C(=O)O)s1)c1ccc2c(c1)C(C)(C)CCC2(C)C (racemic) [Example 10.12, (RS)-(E)-5-[3-(5,5,8,8-Tetramethyl-5,6,7,8-tetrahydronaphthalen-2-yl)-oct-1-enyl]-thiophene-2-carboxylic acid]
melting point: 128 to 129 °C

COc1ccc(CC(/C=C/c2ccc(C(=O)O)cc2)c2ccc3c(c2)C(C)(C)CCC3(C)C)cc1 (racemic) [Example 10.15, (RS)-(E)-4-[4-(4-Methoxyphenyl)-3-(5,5,8,8-tetramethyl-5,6,7,8-tetrahydronaphthalen-2-yl)-but-1-enyl]-benzoic acid]
melting point: 170 to 175 °C

CC=CCC(/C=C/c1ccc(C(=O)O)cc1)c1ccc2c(c1)C(C)(C)CCC2(C)C (racemic) [Example 10.4, (RS)-(E)-4-[3-(5,5,8,8-Tetramethyl-5,6,7,8-tetrahydronaphthalen-2-yl)-hepta-1,5-dienyl]-benzoic acid]
melting point: 145 to 147 °C

CC1(C)CCC(C)(C)c2cc(C(/C=C/c3ccc(C(=O)O)cc3)Cc3ccc(F)cc3)ccc21 (racemic) [Example 10.13, (RS)-(E)-4-[4-(4-Fluorophenyl)-3-(5,5,8,8-tetramethyl-5,6,7,8-tetrahydronaphthalen-2-yl)-but-1-enyl]-benzoic acid]
melting point: 168 to 169 °C

CCCCOC(C(=O)Oc1ccc(C(=O)O)cc1)c1ccc2c(c1)C(C)(C)CCC2(C)C (single isomer, unassigned) [Example 16 (from diastereomer I), (R)- or (S)-4-[butoxy-(5,5,8,8-tetramethyl-5,6,7,8-tetrahydro-naphthalen-2-yl)-acetoxy]-benzoic acid]
melting point: 112 to 113 °C

CCCCCC(/C=C/c1ccc(C(=O)O)cc1)c1ccc2c(c1)C(C)(C)CCC2(C)C (racemic) [(RS)-(E)-4-[3-(5,5,8,8-tetramethyl-5,6,7,8-tetrahydronaphthalen-2-yl)-oct-1-enyl]-benzoic Acid]
% repair area ([3]; 0.003 mg/kg p.o.): 53% | % repair area ([3]; 0.01 mg/kg p.o.): 49% | % repair area ([3]; 0.03 mg/kg p.o.): 32%

CC1(C)CCC(C)(C)c2cc(C(Cc3ccc(C(F)(F)F)cc3)C(=O)Oc3ccc(C(=O)O)cc3)ccc21 (racemic) [Example 3.4, (RS)-4-[2-(5,5,8,8-Tetramethyl-5,6,7,8-tetrahydronaphthalen-2-yl)-3-(4-trifluoromethylphenyl)-propanoyloxy]-benzoic acid]
melting point: 158 to 159 °C

CC1(C)CCC(C)(C)c2cc(C(/C=C/c3ccc(C(=O)O)cc3)CCc3ccccc3)ccc21 (racemic) [Example 10.11, (RS)-(E)-4-[5-Phenyl-3-(5,5,8,8-tetramethyl-5,6,7,8-tetrahydronaphthalen-2-yl)-pent-1-enyl]-benzoic acid]
melting point: 78 to 79 °C

CC(/C=C/c1ccc(C(=O)O)cc1)c1ccc2c(c1)C(C)(C)CCC2(C)C (racemic) [Example 10.2, (RS)-(E)-4-[3-(5,5,8,8-Tetramethyl-5,6,7,8-tetrahydronaphthalen-2-yl)-but-1-enyl]-benzoic acid]
melting point: 203 to 204 °C

CCCCCC(C#Cc1ccc(C(=O)O)cc1)c1ccc2c(c1)C(C)(C)CCC2(C)C (racemic) [Example 12, (RS)-4-[3-(5,5,8,8-tetramethyl-5,6,7,8-tetrahydronaphthalen-2-yl)-oct-1-ynyl]-benzoic Acid]
melting point: 115 to 116 °C

COC(C(=O)Oc1ccc(C(=O)O)cc1)c1ccc2c(c1)C(C)(C)CCC2(C)C (racemic) [Example 15.2. d), (RS)-4-[methoxy-(5,5,8,8-tetramethyl-5,6,7,8-tetrahydro-naphthalen-2-yl)-acetoxy]-benzoic acid]
melting point: 190 to 195 °C

CC1(C)CCSc2ccc(C(/C=C/c3ccc(C(=O)O)cc3)Cc3ccccc3)cc21 (racemic) [Example 40.2, (RS)-(E)-4-[3-(4,4-Dimethyl-thiochroman-6-yl)-4-phenylbut-1-enyl]-benzoic acid]
melting point: 183 to 184 °C

CCCC(/C=C/c1ccc(C(=O)O)cc1)c1ccc2c(c1)C(C)(C)CCC2(C)C (racemic) [Example 10.3, (RS)-(E)-4-[3-(5,5,8,8-Tetramethyl-5,6,7,8-tetrahydronaphthalen-2-yl)-hex-1-enyl]-benzoic acid]
melting point: 116 to 118 °C

CCOCCC(C(=O)Oc1ccc(C(=O)O)cc1)c1ccc2c(c1)C(C)(C)CCC2(C)C (racemic) [Example 3.5, (RS)-4-[4-Ethoxy-2-(5,5,8,8-tetramethyl-5,6,7,8-tetrahydronaphthalen-2-yl)-butanoyloxy]-benzoic acid]
melting point: 133 to 134 °C
